The source of these data is article PMC11978679, “Pyrazolyl amide-chalcones conjugates: Synthesis and antikinetoplastid activity” (Naunyn-Schmiedeberg's Archives of Pharmacology, 2024).

Series [1] relates to T. b. rhodesiense. The arrangement: method as in Bhambra et al. [2017]. Particulars: ref Bhambra et al. [2017]; read-out: IC50 against T. b. rhodesiense; cited from earlier work.
For series [2], the system named is T. b. rhodesiense. The arrangement: method as in Agarwal et al. [2024]. Particulars: imidazo[1,2-a]pyridine-chalcones; ref Agarwal et al. [2024]; read-out: IC50 against T. b. rhodesiense; cited from earlier work.
The subject of series [3] is amastigotes of L. aethiopica. The arrangement: method as in Bekhit et al. [2015]. Particulars: ref Bekhit et al. [2015]; cited from earlier work.
For series [4], the system named is promastigotes of L. aethiopica. Particulars: cited from earlier work.
The test system of another series is T. cruzi. The arrangement: method as in García et al. [2018]. Particulars: ref García et al. [2018]; read-out: EC50 against T. cruzi; cited from earlier work.
In another series the test system is L. panamensis. The arrangement: method as in García et al. [2018]. Particulars: ref García et al. [2018]; read-out: EC50 against L. panamensis; cited from earlier work.
In a further series the test system is L. amazonensis. The arrangement: method as in Bernardino et al. [2006]. Particulars: ref Bernardino et al. [2006]; read-out: IC50 against L. amazonensis; cited from earlier work.
Series [5] is described as follows: In vitro cytotoxicity assay, MRC-5SV2 cells (resazurin). Type of series: cell-based, human. Particulars: human, MRC-5SV2 cells (human lung fibroblasts); cytotoxicity; read-out: CC50 against MRC-5. The procedure: (§1) Briefly, 1.5 × 10^5 cells/mL cells were cultured with compound dilutions at 37 °C and with 5% CO2. Cell growth was compared to untreated-control wells (100% cell growth) and medium-control wells (0% cell growth). After 3 days incubation, cell viability was assessed fluorometrically after addition of 50 μL resazurin per well. […] The results were expressed as % reduction in cell growth/viability compared to control wells and an IC50 value was determined.
(In general: Resazurin is reduced to fluorescent resorufin, in cell work by metabolically active cells.)

The subject of series [6] is human lung fibroblasts (MRC-5). Described as above. Particulars: Homo sapiens, MRC5, 72 h; cytotoxicity, lung fibroblast; 3 days. It counts as cell-based. The procedure: as §1
Series [7] relates to Trypanosoma cruzi (intracellular amastigotes). Briefly: In vitro anti-parasitic assay, T. cruzi (β-galactosidase/CPRG readout). Particulars: TULAHUEN, MRC-5 SV2, read-out: IC50 T. cruzi.
Series [8] concerns primary mouse macrophages (PMMs). Briefly: In vitro cytotoxicity against primary mouse macrophages. Type of series: cell-based. Particulars: Macrophage; cytotoxicity, primary mouse macrophages.
For series [9], the system named is T. cruzi, T. b. brucei, T. b. rhodesiense and L. infantum. Briefly: Antikinetoplastid activity, whole panel, verdict in words. Particulars: compounds lacking the chalcone moiety.
For series [10], the system named is Trypanosoma brucei brucei (blood stream trypomastigotes). In words: Drug susceptibility resazurin assay, T. b. brucei. Particulars: 72 h, read-out: IC50 T. b. brucei.
Series [11] has as its system Leishmania infantum (intracellular amastigotes). Briefly: In vitro anti-Leishmania assay in primary peritoneal mouse macrophages (Giemsa, microscopy). Particulars: Macrophage, 120 h, read-out: IC50 L. infantum.
Series [12] concerns Trypanosoma brucei rhodesiense (blood stream trypomastigotes). In words: Drug susceptibility resazurin assay, T. b. rhodesiense. Particulars: 72 h, read-out: IC50 T. b. rhodesiense.

The structures appear in SMILES notation. Where two headings read alike, the source gives them in different places. A value given as a limit tells only on which side of the number the result lay.

For `O=C(/C=C/c1cccnc1)c1ccccc1Br` [IV], the IC50 (in general, the concentration at which inhibition is half-maximal) in the series with T. b. rhodesiense [1] is 0.38 µM.

As to `O=C(/C=C/c1ccc(Br)cc1)c1ccc(NC(=O)c2cn3ccccc3n2)cc1` [VI], the IC50 in the series with T. b. rhodesiense [2] is 1.13 µM.

With `CC(=O)C(C1=NN(C(C)=O)C(c2cn(-c3ccc(Br)cc3)nc2-c2ccc([N+](=O)[O-])cc2)S1)c1ccccc1` (centres unmarked) [III], in [3], the “IC50 against amastigotes of L. aethiopica” value is reported as 0.13 µg/mL. For the same molecule, the “IC50 against promastigotes of L. aethiopica” value in series [4] (ref Bekhit et al. [2015]) is on record as 0.0142 µg/mL.

`CC(CCCCCCC[n+]1ccn(C)c1)Oc1ccc(C(=O)/C=C/c2ccco2)cc1` (centres unmarked) [V]: the EC50 (in general, the concentration giving half of the maximal effect) in the series on T. cruzi was 0.66 µM; in the series on L. panamensis, 0.78 µM.

Consider `Cc1ccc(-n2cc(/C=C/C(=O)c3cccs3)c(-c3ccccc3)n2)cc1` [II], for which, in series [4] (ref Bekhit et al. [2014]), the “EC50 against promastigotes of L. aethiopica” value was 0.079 µg/mL.

Consider `O=[N+]([O-])c1ccc(N/N=C/c2cnn(-c3ccc(Br)cc3)c2)cc1` [I], for which the IC50 with L. amazonensis is 50 µM.

In the case of `O=C(/C=C/c1cccnc1)c1ccc(NC(=O)c2cn(-c3ccccc3)nc2-c2ccccc2)cc1` [Compound 9m, (E)-1,3-diphenyl-N-(4-(3-(pyridin-3-yl)acryloyl)phenyl)-1H-pyrazole-4-carboxamide], the melting point (in general, the temperature of the solid-liquid transition) fell in the range of 198 to 199 °C. In addition, the CC50 (in general, the concentration that lowers cell viability or growth by half) at 3 days in [5] is 0.26 µM. The molecule further showed an IC50 in series [6] of 0.26 µM.

Turning to `O=C(O)c1cn(-c2ccccc2)nc1-c1ccccc1` [Compound 5, 1,3-diphenyl-1H-pyrazole-4-carboxylic acid], the IC50 is 33 µM in series [6]; above 64 µM in [7]; above 64 µM in series [8]; above 64 µM in series [10]; above 64 µM in series [11]; above 64 µM in series [12]. Also, the “antikinetoplastid activity, in words” value in series [9] was “inactive”.

For `CC(=O)c1ccc(NC(=O)c2cn(-c3ccccc3)nc2-c2ccccc2)cc1` [Compound 7, N-(4-acetylphenyl)-1,3-diphenyl-1H-pyrazole-4-carboxamide], the melting point was 149 to 150 °C. For the same molecule, the IC50 in series [6] was found to be 14.4 µM. The IC50 in [7] was above 64 µM. In addition, the IC50 in series [8] was above 64 µM. Also, the “antikinetoplastid activity, in words” value in series [9] is “inactive”. The IC50 in series [10] is above 64 µM. In addition, in series [11], the IC50 is above 64 µM. Besides, the IC50 in [12] was above 64 µM.
